# From patent US20090324718A1, “IMATINIB COMPOSITIONS” (priority 2006, published 2009)
# Structures can show the parent of a compound that is named as a salt.
# How the values were obtained:
# Type in all cases: physicochemical
# [1] = Physical form of the active drug in the sample; conditions: 55° C./75% RH Day 0
# [2] = Hygroscopicity of imatinib depending on the physical structure of the active drug
# [3] = Chemical stability on storage: HPLC Assay and Impurities and Degradation Determination (IDD); conditions: for Chemical: Assay: HPLC; for Chemical: main deg: HPLC IDD
# Protocol: The term “chemical stability” as used herein relates to the presence or absence of degradation products of the active pharmaceutical ingredient (API) as measure over time. Chemical stability is measured as the Assay of the material and/or the level of degradants. Stability is defined as having an Assay of at least about 90%, as determined by an HPLC assay method and/or having a minimum level of degradants, as determined by an HPLC Impurities and Degradation Determination (IDD) method over time. Preferably, a chemically stable composition as in the present inventor has an assay of at least 95%, more preferably at least 98%, as determined by an HPLC assay over time (storage time).
# The stability of the examples described herein were tested using various analytical methods. One analytic method used is a determination using HPLC. The following HPLC method was used for the examples described below where HPLC was used as an analytic method.
# (§1) The table below summarizes all test results (Assay, IDD, weight gain, and appearance). The appearance data is scored from 1 to 5 (1=very good (no change in color and texture of the sample), see an example of “Score=1” in Table 2, example 10, Day 0, 5=not good (changed both in color (became yellow) and in texture (absorbed water and reduced shine of sample)), see an example of “Score=4-5” in Table 2, example 9, time Day 5), and is supported by pictures presented in Table 2.
# [4] = Physical stability on storage: appearance score (color and texture); parameters: key to Appearance, scale: 1 = good 5 = bad / Appearance / Appearance t = 7 days / Appearance t = 14 days: 1=very good (no change in color and texture of the sample); 5=not good (changed both in color (became yellow) and in texture (absorbed water and reduced shine of sample)); conditions: for Appearance, scale: 1 = good 5 = bad: 55° C./75% RH Day 0; for Appearance: 55° C./75% RH Day 5; for Appearance t = 7 days / Appearance t = 14 days / Appearance t = 28 days: 40° C./75% RH
# From the text: As used herein the term “physical stability” of a composition means the appearance of the composition is substantially unchanged and/or the hygroscopicity is low.
# The term “appearance” as used herein describes the color and texture of a composition. The color of a composition according to a scored scale, as assessed by one of ordinary skill in the art in view of the following guidelines. A discoloration score of 1 indicates material without discoloration, whereas a discoloration score of 5 indicates severe discoloration (almost complete discoloration) relative to the color of the material as obtained after preparation and prior to storage. In the present invention the composition preferably has a white color immediately after processing and generally remains white if stable. Discoloration to a yellow color is typical when the composition is unstable. Similarly, a texture score of 1 indicates material having an uniform and smooth texture, whereas a texture score of 5 indicates a nonuniform and rough texture. The texture may be determined by visual inspection by one of ordinary skill in the art. For both discoloration and texture, scores 2 to 4 represent 5 “some or slight (change)” for a score of 2, “medium (change)” for a score of 3, and “substantial (change)” for a score of 4.
# as §1
# [5] = Gain of weight (moisture uptake) on storage at 40° C./75% RH
# From the text: Texture is often highly correlated with hygroscopicity. Water/moisture absorption tends to reduce shine, for example. Water hygroscopicity can be determined by weight gain analyses.
# Embodiments of the invention are preferably packaged with a desiccant, such as silica. The container preferably has a high moisture barrier, examples of which are known in the art. In a preferred packaged pharmaceutical composition of the present invention an amount of desiccant which will assure a weight gain due to moisture of not more than (NMT) 5%, preferably 0.5%, more preferably 0.05%, is preferred in order to maintain a good appearance and low water absorption for a maximum period of time. For example, the weight gain of the packaged material of the present invention after storage (i) at a temperature of about 55° C. and about 75% relative humidity for 5 days, and/or (ii) at a temperature of about 40° C. and about 75% relative humidity for 30 days, is less than about 15%, preferably less than about 10%, more preferably less than about 5% by weight.
Physical [1],hygroscopicity compared to crystalline material [2],Chemical: Assay ([3]; 55° C./75% RH Day 0),Chemical: main deg ([3]; 55° C./75% RH Day 0),Chemical: Assay ([3]; 55° C./75% RH Day 5),Chemical: main deg ([3]; 55° C./75% RH Day 5),"Appearance, scale: 1 = good 5 = bad [4]",Appearance [4],Wt gain T = 7 days [5],Wt gain T = 14 days [5],Wt gain T = 28 days [5],Appearance t = 7 days [4],Appearance t = 14 days [4],Appearance t = 28 days [4],Compound
amrph,much more hygroscopic,88.6,0.46,97.8,0.44,1,5,–,–,–,–,–,–,"Cc1ccc(NC(=O)c2ccc(CN3CCN(C)CC3)cc2)cc1Nc1nccc(-c2cccnc2)n1 [Active drug (Amorphous), imatinib mesylate]"
Alpha,–,97.5,0.12,98.8,0.12,1,1,–,–,–,–,–,–,"Cc1ccc(NC(=O)c2ccc(CN3CCN(C)CC3)cc2)cc1Nc1nccc(-c2cccnc2)n1 [Active drug (Crystalline 1), imatinib mesylate]"
–,–,–,–,–,–,–,–,12.42%,7.79%,8.86%,1,1,2,Cc1ccc(NC(=O)c2ccc(CN3CCN(C)CC3)cc2)cc1Nc1nccc(-c2cccnc2)n1 [Active drug (Crystalline 2) Packed with silica] [imatinib mesylate]
–,–,94.5,0.11,98.8,0.13,1,4,21.49%,17.75%,18.3%,1,1-2,3,"Cc1ccc(NC(=O)c2ccc(CN3CCN(C)CC3)cc2)cc1Nc1nccc(-c2cccnc2)n1 [Active drug (Crystalline 2), imatinib mesylate]"
